Test results taken from PubChem BioAssay (NCI).
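Protocol summary: plate cells (96-well), add compound at 5 concentrations, incubate 48 h, interpolate endpoints linearly. GI50: concentration for 50% inhibition of growth. TGI marks complete inhibition of growth.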

Assays:
Assay in all cases: NCI anticancer screen, dose series, 48 h
[1] = test system: 786-0 renal
[2] = test system: A498 renal
[3] = test system: A549 NSCLC
[4] = test system: ACHN renal
[5] = test system: BT-549 breast
[6] = test system: CAKI-1 renal
[7] = test system: CCRF-CEM leukemia
[8] = test system: COLO 205 colon
[9] = test system: DU-145 prostate
[10] = test system: EKVX NSCLC
[11] = test system: HCC-2998 colon
[12] = test system: HCT-116 colon
[13] = test system: HCT-15 colon
[14] = test system: HL-60(TB) leukemia
[15] = test system: HOP-62 NSCLC
[16] = test system: HOP-92 NSCLC
[17] = test system: HS 578T breast
[18] = test system: HT29 colon
[19] = test system: IGROV1 ovarian
[20] = test system: K-562 leukemia
[21] = test system: KM12 colon
[22] = test system: LOX IMVI melanoma
[23] = test system: M14 melanoma
[24] = test system: MALME-3M melanoma
[25] = test system: MCF7 breast
[26] = test system: MDA-MB-231 breast
[27] = test system: MDA-MB-435
[28] = test system: MOLT-4 leukemia
[29] = test system: NCI-H226 lung
[30] = test system: NCI-H23 lung
[31] = test system: NCI-H460 lung
[32] = test system: NCI-H522 lung
[33] = test system: NCI/ADR-RES ovarian
[34] = test system: OVCAR-3 ovarian
[35] = test system: OVCAR-4 ovarian
[36] = test system: OVCAR-5 ovarian
[37] = test system: OVCAR-8 ovarian
[38] = test system: PC-3 prostate
[39] = test system: RPMI-8226 leukemia
[40] = test system: SF-268 CNS
[41] = test system: SF-295 CNS
[42] = test system: SF-539 CNS
[43] = test system: SK-MEL-2 melanoma
[44] = test system: SK-MEL-28 melanoma
[45] = test system: SK-MEL-5 melanoma
[46] = test system: SK-OV-3 ovarian
[47] = test system: SN12C renal
[48] = test system: SNB-19 CNS
[49] = test system: SNB-75 CNS
[50] = test system: SR leukemia
[51] = test system: SW-620 colon
[52] = test system: T-47D breast
[53] = test system: TK-10 renal
[54] = test system: U251 CNS
[55] = test system: UACC-257 melanoma
[56] = test system: UACC-62 melanoma
[57] = test system: UO-31 renal

Q: Which GI50 [1] does the source give for O=C(CCCCCCNC(=O)C(O)(O)C(F)(F)F)Nc1ccc(Cl)cc1 here?
A: The GI50 was 9.48 µM.

Q: What about the TGI [1] of the same molecule?
A: The TGI was > 36.8 µM.

Q: What about the GI50 [2] of the same molecule?
A: The GI50 was 1.38 µM.

Q: What about the TGI [2] of the same molecule?
A: Its TGI is 12.5 µM.

Q: What about the GI50 [3] of the same molecule?
A: The GI50 was 9.56 µM.

Q: What about the TGI [3] of the same molecule?
A: Its TGI is > 36.8 µM.

Q: What about the GI50 [4] of the same molecule?
A: The GI50 was 6.01 µM.

Q: And the TGI [4]?
A: The TGI was 28.2 µM.

Q: What about the GI50 [5] of the same molecule?
A: Its GI50 is 6.72 µM.

Q: And the TGI [5]?
A: The TGI was 35 µM.

Q: And the GI50 [6]?
A: Its GI50 is 8.98 µM.

Q: What about the TGI [6] of the same molecule?
A: The TGI was > 36.8 µM.

Q: What about the GI50 [7] of the same molecule?
A: Its GI50 is 2.73 µM.

Q: What about the TGI [7] of the same molecule?
A: Its TGI is > 36.8 µM.

Q: What about the GI50 [8] of the same molecule?
A: The GI50 was 5.83 µM.

Q: And the TGI [8]?
A: Its TGI is 15.1 µM.

Q: And the GI50 [9]?
A: Its GI50 is 8.13 µM.

Q: And the TGI [9]?
A: The TGI was > 36.8 µM.

Q: And the GI50 [10]?
A: The GI50 was 11.2 µM.

Q: What about the TGI [10] of the same molecule?
A: Its TGI is > 36.8 µM.

Q: What about the GI50 [11] of the same molecule?
A: Its GI50 is 7.62 µM.

Q: What about the TGI [11] of the same molecule?
A: The TGI was 22 µM.

Q: And the GI50 [12]?
A: The GI50 was 1.59 µM.

Q: And the TGI [12]?
A: Its TGI is > 36.8 µM.

Q: And the GI50 [13]?
A: Its GI50 is 8.18 µM.

Q: What about the TGI [13] of the same molecule?
A: Its TGI is > 36.8 µM.

Q: What about the GI50 [14] of the same molecule?
A: The GI50 was 3.64 µM.

Q: And the TGI [14]?
A: The TGI was > 36.8 µM.

Q: What about the GI50 [15] of the same molecule?
A: Its GI50 is 7.75 µM.

Q: What about the TGI [15] of the same molecule?
A: The TGI was > 36.8 µM.

Q: And the GI50 [16]?
A: Its GI50 is 1.06 µM.

Q: What about the TGI [16] of the same molecule?
A: Its TGI is 8.39 µM.

Q: What about the GI50 [17] of the same molecule?
A: The GI50 was 3.68 µM.

Q: And the TGI [17]?
A: The TGI was 30.1 µM.

Q: And the GI50 [18]?
A: The GI50 was 6.28 µM.

Q: And the TGI [18]?
A: Its TGI is > 36.8 µM.

Q: What about the GI50 [19] of the same molecule?
A: Its GI50 is 5.11 µM.

Q: What about the TGI [19] of the same molecule?
A: The TGI was 19.8 µM.

Q: What about the GI50 [20] of the same molecule?
A: The GI50 was 1.82 µM.

Q: What about the TGI [20] of the same molecule?
A: Its TGI is > 36.8 µM.

Q: And the GI50 [21]?
A: Its GI50 is 7.92 µM.

Q: And the TGI [21]?
A: The TGI was > 36.8 µM.

Q: And the GI50 [22]?
A: The GI50 was 4.07 µM.

Q: What about the TGI [22] of the same molecule?
A: The TGI was 8.94 µM.

Q: What about the GI50 [23] of the same molecule?
A: The GI50 was 9.99 µM.

Q: What about the TGI [23] of the same molecule?
A: Its TGI is > 36.8 µM.

Q: What about the GI50 [24] of the same molecule?
A: The GI50 was 2.83 µM.

Q: And the TGI [24]?
A: The TGI was 22 µM.

Q: And the GI50 [25]?
A: The GI50 was 10.8 µM.

Q: What about the TGI [25] of the same molecule?
A: Its TGI is > 36.8 µM.

Q: What about the GI50 [26] of the same molecule?
A: Its GI50 is 5.2 µM.

Q: What about the TGI [26] of the same molecule?
A: Its TGI is 27.3 µM.

Q: And the GI50 [27]?
A: The GI50 was 7.13 µM.

Q: What about the TGI [27] of the same molecule?
A: Its TGI is > 36.8 µM.

Q: What about the GI50 [28] of the same molecule?
A: Its GI50 is 2.87 µM.

Q: And the TGI [28]?
A: The TGI was > 36.8 µM.

Q: And the GI50 [29]?
A: The GI50 was 9.49 µM.

Q: And the TGI [29]?
A: The TGI was > 36.8 µM.

Q: And the GI50 [30]?
A: Its GI50 is 7.08 µM.

Q: What about the TGI [30] of the same molecule?
A: Its TGI is 34.2 µM.

Q: And the GI50 [31]?
A: Its GI50 is 4.59 µM.

Q: What about the TGI [31] of the same molecule?
A: The TGI was > 36.8 µM.

Q: What about the GI50 [32] of the same molecule?
A: Its GI50 is 4.68 µM.

Q: And the TGI [32]?
A: Its TGI is 19.8 µM.

Q: What about the GI50 [33] of the same molecule?
A: Its GI50 is 6.16 µM.

Q: What about the TGI [33] of the same molecule?
A: The TGI was 28.7 µM.

Q: And the GI50 [34]?
A: Its GI50 is 3.83 µM.

Q: What about the TGI [34] of the same molecule?
A: The TGI was 10.1 µM.

Q: And the GI50 [35]?
A: Its GI50 is 15.7 µM.

Q: And the TGI [35]?
A: The TGI was > 36.8 µM.

Q: And the GI50 [36]?
A: Its GI50 is 4.26 µM.

Q: What about the TGI [36] of the same molecule?
A: Its TGI is 20.9 µM.

Q: And the GI50 [37]?
A: Its GI50 is 3.5 µM.

Q: What about the TGI [37] of the same molecule?
A: The TGI was > 36.8 µM.

Q: What about the GI50 [38] of the same molecule?
A: The GI50 was 5.01 µM.

Q: What about the TGI [38] of the same molecule?
A: Its TGI is > 36.8 µM.

Q: What about the GI50 [39] of the same molecule?
A: The GI50 was 3.46 µM.

Q: And the TGI [39]?
A: The TGI was > 36.8 µM.

Q: What about the GI50 [40] of the same molecule?
A: Its GI50 is 7.27 µM.

Q: And the TGI [40]?
A: The TGI was 24.5 µM.

Q: What about the GI50 [41] of the same molecule?
A: The GI50 was 5.77 µM.

Q: What about the TGI [41] of the same molecule?
A: The TGI was 13.1 µM.

Q: What about the GI50 [42] of the same molecule?
A: The GI50 was 8.85 µM.

Q: What about the TGI [42] of the same molecule?
A: The TGI was > 36.8 µM.

Q: And the GI50 [43]?
A: Its GI50 is 5.41 µM.

Q: What about the TGI [43] of the same molecule?
A: The TGI was 17.6 µM.

Q: And the GI50 [44]?
A: The GI50 was 5.4 µM.

Q: What about the TGI [44] of the same molecule?
A: Its TGI is 34.3 µM.

Q: What about the GI50 [45] of the same molecule?
A: The GI50 was 5.07 µM.

Q: What about the TGI [45] of the same molecule?
A: The TGI was 10 µM.

Q: And the GI50 [46]?
A: Its GI50 is 5.56 µM.

Q: And the TGI [46]?
A: The TGI was 26 µM.

Q: And the GI50 [47]?
A: Its GI50 is 7.66 µM.

Q: And the TGI [47]?
A: Its TGI is 35.6 µM.

Q: And the GI50 [48]?
A: Its GI50 is 7.56 µM.

Q: What about the TGI [48] of the same molecule?
A: Its TGI is 30.9 µM.

Q: What about the GI50 [49] of the same molecule?
A: The GI50 was 8.76 µM.

Q: What about the TGI [49] of the same molecule?
A: The TGI was > 36.8 µM.

Q: And the GI50 [50]?
A: Its GI50 is 2.44 µM.

Q: And the TGI [50]?
A: The TGI was > 36.8 µM.

Q: What about the GI50 [51] of the same molecule?
A: The GI50 was 4.02 µM.

Q: What about the TGI [51] of the same molecule?
A: Its TGI is 16.3 µM.

Q: And the GI50 [52]?
A: Its GI50 is 5.76 µM.

Q: What about the TGI [52] of the same molecule?
A: Its TGI is > 36.8 µM.

Q: What about the GI50 [53] of the same molecule?
A: Its GI50 is 1.55 µM.

Q: And the TGI [53]?
A: The TGI was > 36.8 µM.

Q: What about the GI50 [54] of the same molecule?
A: Its GI50 is 4.91 µM.

Q: What about the TGI [54] of the same molecule?
A: Its TGI is 21 µM.

Q: And the GI50 [55]?
A: Its GI50 is 7.85 µM.

Q: And the TGI [55]?
A: Its TGI is > 36.8 µM.

Q: And the GI50 [56]?
A: The GI50 was 3.19 µM.

Q: What about the TGI [56] of the same molecule?
A: Its TGI is 9.28 µM.

Q: And the GI50 [57]?
A: The GI50 was 5.25 µM.

Q: And the TGI [57]?
A: The TGI was 23.7 µM.
